Experimental data taken from patent US20170367338A1, “COMPOSITIONS AND METHODS FOR IMPROVING AGRONOMIC CHARACTERISTICS OF PLANTS” (MONSANTO TECHNOLOGY LLC, priority 2014, published 2017).
Like-named read-outs stand apart in the source and are kept apart here. Marks after values point to notes of the source that are not given here.

Assays:
[1] = tested on: root knot nematode; assay: Pre-plant incorporated (PPI) greenhouse test of root knot nematode on cucumber plants; assay type: in vivo; settings: for pest or weed control at 4000 g/ha: 4 kg/ha, read-out: percent control (galling reduction), 4 kg/ha rate; for pest or weed control at 8000 g/ha: 8 ka/ha, read-out: percent control (galling reduction), 8 ka/ha rate
Outline: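 Compound in acetone, diluted in 0.05% X100, was mixed into a field soil/sand mix at doses simulating 8, 4 and 2 kg/ha incorporated 15 cm deep, with 4 pots per treatment. Cucumber was seeded and root knot nematode eggs were applied 7, 14 or 21 days after soil treatment. Harvest followed 14 days after inoculation.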

[2] = tested on: soybean cyst nematode (SCN); assay: SCN greenhouse sand assay on soybean plants; assay type: in vivo; settings: Glycine max, 672 h, read-out: percent control (cyst number reduction) relative to the control blank treatment
[3] = tested on: caspase-3; assay: Caspase-3 activity in H4IIE cells (DEVD-AMC); assay type: cell-based; settings: rat hepatoma derived H4IIE cells, concentrations up to 300 μM
Description: To evaluate whether the compound classes of this invention are able to induce apoptosis, caspase-3 activity was determined after compound exposure in rat hepatoma derived H4IIE cells using a caspase substrate (DEVD, Asp-Glu-Val-Asp) labeled with a fluorescent molecule, 7-Amino-4-methylcoumarin (AMC). Caspase 3 cleaves the tetrapeptide between D and AMC, thus releasing the fluorogenic […] AMC. Following the test article exposure to cells in 96-well plates, medium was aspirated from plates and PBS added to each well. Plates were stored at −80° C. to lyse cells and store samples until further analysis. On the day of analysis, plates were removed from freezer and thawed. Caspase buffer with fluorescent substrate was added to each well and incubated at room temperature for one hour. AMC release was measured in a spectrofluorometer at an excitation wavelength of 360 nm and an emission wavelength of 460 nm. Values are expressed as relative fluorescent units (RFU).

[4] = tested on: root knot nematode (RKN); assay: RKN greenhouse soil assay on cucumber plants; assay type: in vivo; settings: for percent control (galling reduction) relative to the control blank treatment: 0 day treatment
From the text: Cucumber seeds are planted in a sandy soil mixture in two inch square plastic pots. When the cotyledons are fully opened and just as the first leaf begins to emerge, usually 7 days after planting, chemistry for the 7 day treatment is applied. One week later the chemistry for the 0 day treatment is applied. Separate plants are used for each application. The plants are generally in the 1-2 leaf stage now. At least four hours after the chemistry application the pots are inoculated with root knot nematode (RKN) eggs. Plants are rated for galling 14 days after the egg inoculation.
One milligram of chemistry per four pots is equal to one kilogram per hectare of chemical. A standard test uses four replications. For rates above 2 kg/ha, the desired amount of chemical is weighed into a 30 ml vial (example: 8 kg/ha rate =8 mg chemical in 30 ml vial). The chemical is dissolved in 2 ml of appropriate solvent, generally acetone. For rates below 2 kg/ha, 2 milligrams of chemistry is weighed into the vial and dissolved in 2 ml of the solvent. The appropriate amount of chemical concentrate is then pipetted into a separate 30 ml vial and solvent is added to bring the volume to 2 ml (example 0.5 kg/ha=0.5 ml of concentrate+1.5 ml solvent). Each dissolved concentrate is then brought to a total of 20 milliliters using 0.05% Triton X 100 surfactant solution.
Pots to be treated are moist but not saturated. To each of four pots, five milliliters of the appropriate chemical solution is pipetted to the media surface making sure to avoid contact with the base of the plant. Immediately following chemical application, using a mist nozzle, the pot surface is wetted sufficiently to saturate the pot watering in the chemistry. The chemical application is done in the morning.
Nematode eggs, either SCN or RKN, are added to distilled water to create a concentration of 1000 vermiform eggs […]. At least four hours after chemical treatment the eggs are applied to the treated pots plus non-treated check plants. A small hole about 1 cm deep is punched into the pot surface. One milliliter of the nematode egg slurry is pipetted into the hole. Immediately afterwards the hole is gently covered. Watering of the test plants is then restricted to only water as needed to prevent wilt for a period of 24 hours. After the 24 hour restricted watering, normal sub-irrigation watering is done for the duration of the test.

[5] = 168 h, seven day pre-plant incorporated
[6] = 336 h, fourteen day pre-plant incorporated, test a
[7] = 504 h, twenty one day pre-plant incorporated
[8] = fourteen day pre-plant incorporated, test a

| SMILES | pest or weed control at 4000 g/ha [1, 5] | pest or weed control at 8000 g/ha [1, 5] | pest or weed control at 4000 g/ha [1, 6] | pest or weed control at 4000 g/ha [1, 7] | pest or weed control at 8000 g/ha [1, 7] | percent control (galling reduction), 2 kg/ha rate [1, 8] | pest or weed control at 8000 g/ha [1, 8] | pest or weed control at 2000 g/ha ([2]; 2 kg/ha, test a) | induction of caspase-3 [3] | percent control (galling reduction) relative to the control blank treatment ([4]; 0.05 kg/ha, test a) | percent control (galling reduction) relative to the control blank treatment ([4]; 0.25 kg/ha, test a) | percent control (galling reduction), Acetone 1 mg/kg ([4]; Acetone formulation (10% acetone in 0.05% Triton X 100), 1 mg/kg) | pest or weed control at 4000 g/ha ([1]; 336 h, fourteen day pre-plant incorporated, test b) | pest or weed control at 8000 g/ha ([1]; fourteen day pre-plant incorporated, test b) | pest or weed control at 100 g/ha ([2]; 0.1 kg/ha, test d) | pest or weed control at 250 g/ha ([2]; 0.25 kg/ha, test d) | percent control (galling reduction) relative to the control blank treatment ([4]; 0.1 kg/ha, test a) | percent control (galling reduction) relative to the control blank treatment ([4]; 0.25 kg/ha, test c) |
| --- | --- | --- | --- | --- | --- | --- | --- | --- | --- | --- | --- | --- | --- | --- | --- | --- | --- | --- |
| c1ccc(-c2noc(-c3cccs3)n2)cc1 [compound 1822] | 99% | 99% | 97% | 82% | 95% | 67^a percent | 100% | 100% | no induction of caspase-3 | 7^a percent | 60% | 94% |  |  |  |  |  |  |
| Cc1cc(Cl)ccc1-c1noc(-c2ccco2)n1 [compound 5823] |  |  | 98% |  |  | 85^a percent | 100% |  | no induction of caspase-3 |  |  |  | 94% | 100% | 38% | 69% | 85% | 98% |
